Source: patent publication US20090246276A1, “Pharmaceutical Compositions” (priority 2008, published 2009)
Structures can show the parent of a compound that is named as a salt.

Columns and labels:
[1] = Solubility (37° C.) in 0.1N HCl, pH 4.5, pH 6.8; assay type: physicochemical; design: Solubility (37° C.): unit not given here; conditions: for Solubility (37° C.): hydrochloride; for solubility: 37 °C
[2] = In-vitro dissolution, 900 ml medium (0.1N HCl, pH 4.5 acetate buffer, pH 6.8 or pH 7.5 phosphate buffer), USP Apparatus 1, 75 rpm, 37° C.; assay type: physicochemical; conditions: for % Released (Bi-layer Tablets): Example 16 coated bi-layer tablet; for % Released (Homogenous Tablets): Example 19 tablet; for % Release: 900 ml Phosphate Buffer, pH 7.5, Apparatus 1, 75 rpm, 37 C.
Procedure: The dissolution profile of the above pharmaceutical composition was determined under the dissolution conditions described below in Tables 1A, 1B, and 1C.

[3] = Example 22: effect of bupropion (Wellbutrin XL 300 mg) on steady-state pharmacokinetics of citalopram (Celexa 20 mg)
[4] = steady-state dosing of Celexa 20 mg alone
[5] = steady-state dosing of Celexa 20 mg plus Wellbutrin XL 300 mg

CC(NC(C)(C)C)C(=O)c1cccc(Cl)c1 (stereo not drawn) [Bupropion HCl, bupropion hydrochloride]
Solubility (37° C.) ([1]; 0.1N HCl): 416
Solubility (37° C.) ([1]; pH 4.5): 437
Solubility (37° C.) ([1]; pH 6.8): 437
% Released (Bi-layer Tablets) ([2]; 0.1N HCl, 1 hr): 16.36%
% Released (Bi-layer Tablets) ([2]; 0.1N HCl, 2 hr): 33.56%
% Released (Bi-layer Tablets) ([2]; 0.1N HCl, 3 hr): 49.54%
% Released (Bi-layer Tablets) ([2]; 0.1N HCl, 4 hr): 65.00%
% Released (Bi-layer Tablets) ([2]; 0.1N HCl, 5 hr): 79.63%
% Released (Bi-layer Tablets) ([2]; 0.1N HCl, 6 hr): 88.97%
% Released (Bi-layer Tablets) ([2]; 0.1N HCl, 7 hr): 94.82%
% Released (Bi-layer Tablets) ([2]; 0.1N HCl, 8 hr): 97.06%
% Released (Homogenous Tablets) ([2]; 0.1N HCl, 1 hr): 16.63%
% Released (Homogenous Tablets) ([2]; 0.1N HCl, 2 hr): 39.40%
% Released (Homogenous Tablets) ([2]; 0.1N HCl, 3 hr): 60.60%
% Released (Homogenous Tablets) ([2]; 0.1N HCl, 4 hr): 78.36%
% Released (Homogenous Tablets) ([2]; 0.1N HCl, 5 hr): 90.30%
% Released (Homogenous Tablets) ([2]; 0.1N HCl, 6 hr): 96.38%
% Released (Homogenous Tablets) ([2]; 0.1N HCl, 7 hr): 99.14%
% Released (Homogenous Tablets) ([2]; 0.1N HCl, 8 hr): 100.26%

CN(C)CCCC1(c2ccc(F)cc2)OCc2cc(C#N)ccc21 (stereo not drawn) [Citalopram, citalopram]
AUC ([3]; both, human, in vivo, 20 mg): 1220 ng·h/mL
Cmax ([3]; both, human, in vivo, 20 mg): 67.9 ng/mL
MRT ([3]; both, human, in vivo, 20 mg): 48.6 h
Tmax ([3]; both, human, in vivo, 20 mg): 3.96 h
Vd/F ([3]; both, human, in vivo, 20 mg): 750 L
CL/F, Mean [3, 4]: 17.66 L/h
Cavg, Mean [3, 4]: 50.8 ng/mL
Cmin, Mean [3, 4]: 39.5 ng/mL
Fluctuation, Mean [3, 4]: 57.22%
Swing, Mean [3, 4]: 75.55%
CL/F, Mean [3, 5]: 11.04 L/h
Cavg, Mean [3, 5]: 78.2 ng/mL
Cmin, Mean [3, 5]: 61.6 ng/mL
Fluctuation, Mean [3, 5]: 48.46%
Swing, Mean [3, 5]: 62.15%

CNCCC[C@]1(c2ccc(F)cc2)OCc2cc(C#N)ccc21 [Desmethylcitalopram, desmethylcitalopram]
AUC0-τ, Mean [3, 4]: 445.9 ng·h/mL
Cavg, Mean [3, 4]: 18.6 ng/mL
Cmax, Mean [3, 4]: 21.7 ng/mL
Cmin, Mean [3, 4]: 16.3 ng/mL
Fluctuation, Mean [3, 4]: 28.93%
M/P Ratio, Mean [3, 4]: 0.4062
MRT, Mean [3, 4]: 98.54 h
Swing, Mean [3, 4]: 33.09%
Tmax, Mean [3, 4]: 5.46 h
AUC0-τ, Mean [3, 5]: 485.2 ng·h/mL
Cavg, Mean [3, 5]: 20.2 ng/mL
Cmax, Mean [3, 5]: 23.6 ng/mL
Cmin, Mean [3, 5]: 17.3 ng/mL
Fluctuation, Mean [3, 5]: 30.39%
M/P Ratio, Mean [3, 5]: 0.2814
MRT, Mean [3, 5]: 85.78 h
Swing, Mean [3, 5]: 35.98%
Tmax, Mean [3, 5]: 7.12 h

N#Cc1ccc2c(c1)COC2(CCCN)c1ccc(F)cc1 (stereo not drawn) [Didesmethylcitalopram, didesmethylcitalopram]
AUC0-τ, Mean [3, 4]: 92.04 ng·h/mL
Cavg, Mean [3, 4]: 3.84 ng/mL
Cmax, Mean [3, 4]: 4.40 ng/mL
Cmin, Mean [3, 4]: 3.42 ng/mL
Fluctuation, Mean [3, 4]: 26.43%
M/P Ratio, Mean [3, 4]: 0.09587
MRT, Mean [3, 4]: 258.96 h
Swing, Mean [3, 4]: 29.97%
Tmax, Mean [3, 4]: 6.41 h

OCCOCCN1CCN(C2=Nc3ccccc3Sc3ccccc32)CC1 [Quetiapine Fumarate, quetiapine fumarate]
solubility ([1]; 0.1N HCl, simulated gastric fluid): 41000 µg/mL
solubility ([1]; pH 4.5, aqueous buffer, pH 4.5): 3000 µg/mL
solubility ([1]; pH 6.8, aqueous buffer, pH 6.8): 300 µg/mL
% Released ([2]; Example 17 tablet, 0.1N HCl, 1 hr): 18%
% Released ([2]; Example 17 tablet, 0.1N HCl, 2 hr): 39%
% Released ([2]; Example 17 tablet, 0.1N HCl, 4 hr): 69%
% Released ([2]; Example 17 tablet, 0.1N HCl, 8 hr): 98%
% Released ([2]; Example 17 tablet, 0.1N HCl, 12 hr): 97%
% Released ([2]; Example 17 tablet, 0.1N HCl, 16 hr): 96%
% Released ([2]; Example 17 tablet, pH 6.8 phosphate buffer, 1 hr): 2%
% Released ([2]; Example 17 tablet, pH 6.8 phosphate buffer, 2 hr): 10%
% Released ([2]; Example 17 tablet, pH 6.8 phosphate buffer, 4 hr): 41%
% Released ([2]; Example 17 tablet, pH 6.8 phosphate buffer, 8 hr): 76%
% Released ([2]; Example 17 tablet, pH 6.8 phosphate buffer, 12 hr): 93%
% Released ([2]; Example 17 tablet, pH 6.8 phosphate buffer, 16 hr): 95%

COc1cccc(C2(O)CCCCC2CN(C)C)c1 (stereo not drawn) [Tramadol HCl, tramadol HCl]
% Released ([2]; Example 20 tablet, 0.1N HCl, 0.5 hr): 10%
% Released ([2]; Example 20 tablet, 0.1N HCl, 1 hr): 33%
% Released ([2]; Example 20 tablet, 0.1N HCl, 2 hr): 73%
% Released ([2]; Example 20 tablet, 0.1N HCl, 3 hr): 96%
% Released ([2]; Example 20 tablet, 0.1N HCl, 4 hr): 104%
% Released ([2]; Example 20 tablet, 0.1N HCl, 5 hr): 106%
% Released ([2]; Example 20 tablet, 0.1N HCl, 6 hr): 106%
% Released ([2]; Example 20 tablet, 0.1N HCl, 8 hr): 106%
% Released ([2]; Example 20 tablet, 0.1N HCl, 10 hr): 105%
% Released ([2]; Example 20 tablet, 0.1N HCl, 12 hr): 105%
% Released ([2]; Example 20 tablet, pH 6.8 phosphate buffer, 0.5 hr): 9%
% Released ([2]; Example 20 tablet, pH 6.8 phosphate buffer, 1 hr): 32%
% Released ([2]; Example 20 tablet, pH 6.8 phosphate buffer, 2 hr): 75%
% Released ([2]; Example 20 tablet, pH 6.8 phosphate buffer, 3 hr): 98%
% Released ([2]; Example 20 tablet, pH 6.8 phosphate buffer, 4 hr): 105%
% Released ([2]; Example 20 tablet, pH 6.8 phosphate buffer, 5 hr): 107%
% Released ([2]; Example 20 tablet, pH 6.8 phosphate buffer, 6 hr): 107%
% Released ([2]; Example 20 tablet, pH 6.8 phosphate buffer, 8 hr): 107%
% Released ([2]; Example 20 tablet, pH 6.8 phosphate buffer, 10 hr): 107%
% Released ([2]; Example 20 tablet, pH 6.8 phosphate buffer, 12 hr): 107%
% Release ([2]; Example 27 controlled release tablet (batch 1258-171), 2 hrs): 51%
% Release ([2]; Example 27 controlled release tablet (batch 1258-171), 4 hrs): 70%
% Release ([2]; Example 27 controlled release tablet (batch 1258-171), 8 hrs): 96%
% Release ([2]; Example 27 controlled release tablet (batch 1258-171), 10 hrs): 100%
% Release ([2]; Example 27 controlled release tablet (batch 1258-171), 16 hrs): 100%
% Release ([2]; Example 28 controlled release tablet (batch 1258-175), 2 hrs): 0%
% Release ([2]; Example 28 controlled release tablet (batch 1258-175), 4 hrs): 7%
% Release ([2]; Example 28 controlled release tablet (batch 1258-175), 8 hrs): 61%
% Release ([2]; Example 28 controlled release tablet (batch 1258-175), 10 hrs): 74%
% Release ([2]; Example 28 controlled release tablet (batch 1258-175), 16 hrs): 84%
% Released ([2]; Example 29 controlled release tablet (batch no. 08070T), 900 ml 0.1N HCl, USP Apparatus 1, 75 rpm, 37° C., 0.5 hr): 18%
% Released ([2]; Example 29 controlled release tablet (batch no. 08070T), 900 ml 0.1N HCl, USP Apparatus 1, 75 rpm, 37° C., 1 hr): 28%
% Released ([2]; Example 29 controlled release tablet (batch no. 08070T), 900 ml 0.1N HCl, USP Apparatus 1, 75 rpm, 37° C., 2 hr): 42%
% Released ([2]; Example 29 controlled release tablet (batch no. 08070T), 900 ml 0.1N HCl, USP Apparatus 1, 75 rpm, 37° C., 3 hr): 53%
% Released ([2]; Example 29 controlled release tablet (batch no. 08070T), 900 ml 0.1N HCl, USP Apparatus 1, 75 rpm, 37° C., 4 hr): 62%
% Released ([2]; Example 29 controlled release tablet (batch no. 08070T), 900 ml 0.1N HCl, USP Apparatus 1, 75 rpm, 37° C., 5 hr): 70%
% Released ([2]; Example 29 controlled release tablet (batch no. 08070T), 900 ml 0.1N HCl, USP Apparatus 1, 75 rpm, 37° C., 6 hr): 76%
% Released ([2]; Example 29 controlled release tablet (batch no. 08070T), 900 ml 0.1N HCl, USP Apparatus 1, 75 rpm, 37° C., 8 hr): 86%
% Released ([2]; Example 29 controlled release tablet (batch no. 08070T), 900 ml 0.1N HCl, USP Apparatus 1, 75 rpm, 37° C., 10 hr): 93%
% Released ([2]; Example 29 controlled release tablet (batch no. 08070T), 900 ml 0.1N HCl, USP Apparatus 1, 75 rpm, 37° C., 12 hr): 97%
% Released ([2]; Example 29 controlled release tablet (batch no. 08070T), 900 ml pH 6.8 phosphate buffer, USP Apparatus 1, 75 rpm, 37° C., 0.5 hr): 19%
% Released ([2]; Example 29 controlled release tablet (batch no. 08070T), 900 ml pH 6.8 phosphate buffer, USP Apparatus 1, 75 rpm, 37° C., 1 hr): 29%
% Released ([2]; Example 29 controlled release tablet (batch no. 08070T), 900 ml pH 6.8 phosphate buffer, USP Apparatus 1, 75 rpm, 37° C., 2 hr): 44%
% Released ([2]; Example 29 controlled release tablet (batch no. 08070T), 900 ml pH 6.8 phosphate buffer, USP Apparatus 1, 75 rpm, 37° C., 3 hr): 55%
% Released ([2]; Example 29 controlled release tablet (batch no. 08070T), 900 ml pH 6.8 phosphate buffer, USP Apparatus 1, 75 rpm, 37° C., 4 hr): 65%
% Released ([2]; Example 29 controlled release tablet (batch no. 08070T), 900 ml pH 6.8 phosphate buffer, USP Apparatus 1, 75 rpm, 37° C., 5 hr): 72%
% Released ([2]; Example 29 controlled release tablet (batch no. 08070T), 900 ml pH 6.8 phosphate buffer, USP Apparatus 1, 75 rpm, 37° C., 6 hr): 79%
% Released ([2]; Example 29 controlled release tablet (batch no. 08070T), 900 ml pH 6.8 phosphate buffer, USP Apparatus 1, 75 rpm, 37° C., 8 hr): 90%
% Released ([2]; Example 29 controlled release tablet (batch no. 08070T), 900 ml pH 6.8 phosphate buffer, USP Apparatus 1, 75 rpm, 37° C., 10 hr): 98%
% Released ([2]; Example 29 controlled release tablet (batch no. 08070T), 900 ml pH 6.8 phosphate buffer, USP Apparatus 1, 75 rpm, 37° C., 12 hr): 102%
